Columns and labels:
[1] = tested on: Echinochloa oryzicola Vasing; assay: Herbicidal effects in paddy field soil treatment (Test Example 1); type: in vivo; parameters: scale not given here; conditions: for herbicidal effect (index) on Echinochloa oryzicola Vasing: paddy field soil treatment (Test Example 1), criteria of Table 138
How it was run: (§1)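 Scoring of herbicidal effect took place 21 days after treatment, using a rating scale, on plants grown in a greenhouse. The test compound, formulated as a wettable powder and diluted with water, had been applied dropwise to the flood water at 1000 g active ingredient per hectare, one day after sowing into puddled paddy soil held under 3 cm of water.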

[2] = tested on: Scirpus juncoides Roxb. var. ohwianus. T. Koyama; assay: as above; type: in vivo; parameters: scale not given here; conditions: for herbicidal effect (index) on Scirpus juncoides Roxb. var. ohwianus. T. Koyama: paddy field soil treatment (Test Example 1), criteria of Table 138
How it was run: as §1

[3] = tested on: Monochoria vaginalis (Burm. f.) Presl var. plantaginea (Roxb.) Solms-Laub.; assay: as above; type: in vivo; parameters: scale not given here; conditions: for herbicidal effect (index) on Monochoria vaginalis (Burm. f.) Presl var. plantaginea (Roxb.) Solms-Laub.: paddy field soil treatment (Test Example 1), criteria of Table 138
How it was run: as §1

[4] = tested on: Abutilon theophrasti medicus; assay: Herbicidal effects in upland field soil treatment (Test Example 2); type: in vivo; parameters: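 grade 0 to 5 of growth suppression where 5 is 90% or more and 0 below 10%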; conditions: 1000 g active ingredient per hectare, 21st day after treatment, criteria of Table 138
How it was run: (§2)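 Herbicidal effect was rated visually against set criteria on the 21st day after a pre-emergence soil-surface spray of diluted wettable powder delivering 1000 g active ingredient per hectare (1000 L/ha). Seeds had been sown and covered in upland field soil; plants grew in a greenhouse.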

Amaranthus viridis L. [5] = assay: as above; type: in vivo; parameters: scale not given here; conditions: 1000 g active ingredient per hectare, 21st day after treatment, criteria of Table 138
How it was run: as §2

[6] = tested on: Abutilon theophrasti medicus; assay: Herbicidal effects in upland field foliar treatment (Test Example 3); type: in vivo; parameters: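 grade 0 to 5 of growth suppression where 5 is 90% or more and 0 below 10%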; conditions: criteria of Table 138; for herbicidal effects on Abutilon theophrasti medicus: 1000 g of the active ingredient per hectare, 14th day after the treatment, wettable powder
How it was run: (§3)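 Herbicidal activity is rated visually on a fixed scale 14 days after foliar application. Plants raised from seed in upland field soil for two weeks under glass receive a water dilution of a wettable powder at 1000 g a.i. per hectare in 1000 L/ha.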

[7] = tested on: Echinochloa crus-galli (L.) P. Beauv. var. crus-galli; assay: as above; type: in vivo; parameters: scale not given here; conditions: criteria of Table 138; for herbicidal effects on Echinochloa crus-galli (L.) P. Beauv. var. crus-galli: 1000 g of the active ingredient per hectare, 14th day after the treatment, wettable powder
How it was run: as §3

Amaranthus viridis L. [8] = assay: as above; type: in vivo; parameters: scale not given here; conditions: criteria of Table 138; for herbicidal effects on Amaranthus viridis L.: 1000 g of the active ingredient per hectare, 14th day after the treatment, wettable powder
How it was run: as §3

[9] = paddy field soil treatment, 1000 g of the active ingredient per hectare, wettable powder added dropwise on water surface, 21st day after treatment
[10] = 1000 g active ingredient per hectare, 14th day after treatment

SMILES: Cn1c(=O)c(C(=O)C2=C(O)CCCC2=O)nc2ccccc21 [I-2, 3-(2-hydroxy-6-oxo-1-cyclohexenecarbonyl)-1-methylquinoxalin-2(1H)-one]
- melting point: 191 to 192 °C
- Herbicidal effects index, Echinochloa oryzicola Vasing [1, 9]: 4
- Herbicidal effects index, Scirpus juncoides Roxb. var. ohwianus. T. Koyama [2, 9]: 5
- Herbicidal effects index, Monochoria vaginalis (Burm. f.) Presl var. plantaginea (Roxb.) Solms-Laub. [3, 9]: 5
- herbicidal effect (index) on Abutilon theophrasti medicus [4]: 5
- herbicidal effect (index) on Amaranthus viridis L. (Amaranthus viridis L. [5]): 5
- herbicidal effect (index) on Abutilon theophrasti medicus [6, 10]: 5
- herbicidal effect (index) on Echinochloa crus-galli (L.) P. Beauv. var. crus-galli [7, 10]: 4
- herbicidal effect (index) on Amaranthus viridis L. (Amaranthus viridis L. [8]; [10]): 5

SMILES: COc1ccccc1-n1c(=O)c(C(=O)C2=C(O)CCCC2=O)nc2cccnc21 [IV-52]
- herbicidal effect (index) on Echinochloa oryzicola Vasing [1]: 5
- herbicidal effect (index) on Scirpus juncoides Roxb. var. ohwianus. T. Koyama [2]: 5
- herbicidal effect (index) on Monochoria vaginalis (Burm. f.) Presl var. plantaginea (Roxb.) Solms-Laub. [3]: 5
- herbicidal effect (index) on Abutilon theophrasti medicus [4]: 5
- herbicidal effect (index) on Amaranthus viridis L. (Amaranthus viridis L. [5]): 4
- herbicidal effects on Abutilon theophrasti medicus [6]: 5
- herbicidal effects on Echinochloa crus-galli (L.) P. Beauv. var. crus-galli [7]: 5
- herbicidal effects on Amaranthus viridis L. (Amaranthus viridis L. [8]): 5

SMILES: COc1cccc(-n2c(=O)c(C(=O)C3=C(O)CCCC3=O)nc3cccnc32)c1 [IV-57]
- herbicidal effect (index) on Echinochloa oryzicola Vasing [1]: 4
- herbicidal effect (index) on Scirpus juncoides Roxb. var. ohwianus. T. Koyama [2]: 5
- herbicidal effect (index) on Monochoria vaginalis (Burm. f.) Presl var. plantaginea (Roxb.) Solms-Laub. [3]: 5
- herbicidal effect (index) on Abutilon theophrasti medicus [4]: 5
- herbicidal effect (index) on Amaranthus viridis L. (Amaranthus viridis L. [5]): 5
- herbicidal effects on Abutilon theophrasti medicus [6]: 5
- herbicidal effects on Echinochloa crus-galli (L.) P. Beauv. var. crus-galli [7]: 4
- herbicidal effects on Amaranthus viridis L. (Amaranthus viridis L. [8]): 5

SMILES: COc1ccc(-n2c(=O)c(C(=O)C3=C(O)CCCC3=O)nc3cccnc32)cc1 [IV-62, 2-(2-hydroxy-6-oxo-1-cyclohexenecarbonyl)-4-(4-methoxyphenyl)-pyrido[2,3-b]pyrazin-3(4H)-one]
- herbicidal effect (index) on Echinochloa oryzicola Vasing [1]: 5
- herbicidal effect (index) on Scirpus juncoides Roxb. var. ohwianus. T. Koyama [2]: 5
- herbicidal effect (index) on Monochoria vaginalis (Burm. f.) Presl var. plantaginea (Roxb.) Solms-Laub. [3]: 5
- herbicidal effect (index) on Abutilon theophrasti medicus [4]: 5
- herbicidal effect (index) on Amaranthus viridis L. (Amaranthus viridis L. [5]): 5
- herbicidal effects on Abutilon theophrasti medicus [6]: 5
- herbicidal effects on Echinochloa crus-galli (L.) P. Beauv. var. crus-galli [7]: 5
- herbicidal effects on Amaranthus viridis L. (Amaranthus viridis L. [8]): 5

SMILES: O=C1CCCC(O)=C1C(=O)c1nc2cccnc2n(-c2ccccc2OC(F)F)c1=O [IV-85]
- herbicidal effect (index) on Echinochloa oryzicola Vasing [1]: 5
- herbicidal effect (index) on Scirpus juncoides Roxb. var. ohwianus. T. Koyama [2]: 5
- herbicidal effect (index) on Monochoria vaginalis (Burm. f.) Presl var. plantaginea (Roxb.) Solms-Laub. [3]: 5
- herbicidal effect (index) on Abutilon theophrasti medicus [4]: 5
- herbicidal effect (index) on Amaranthus viridis L. (Amaranthus viridis L. [5]): 5
- herbicidal effects on Abutilon theophrasti medicus [6]: 5
- herbicidal effects on Echinochloa crus-galli (L.) P. Beauv. var. crus-galli [7]: 5
- herbicidal effects on Amaranthus viridis L. (Amaranthus viridis L. [8]): 5

SMILES: O=C1CCCC(O)=C1C(=O)c1nc2cccnc2n(-c2cccc(OC(F)F)c2)c1=O [IV-90]
- herbicidal effect (index) on Echinochloa oryzicola Vasing [1]: 5
- herbicidal effect (index) on Scirpus juncoides Roxb. var. ohwianus. T. Koyama [2]: 5
- herbicidal effect (index) on Monochoria vaginalis (Burm. f.) Presl var. plantaginea (Roxb.) Solms-Laub. [3]: 5
- herbicidal effect (index) on Abutilon theophrasti medicus [4]: 5
- herbicidal effect (index) on Amaranthus viridis L. (Amaranthus viridis L. [5]): 5
- herbicidal effects on Abutilon theophrasti medicus [6]: 5
- herbicidal effects on Echinochloa crus-galli (L.) P. Beauv. var. crus-galli [7]: 5
- herbicidal effects on Amaranthus viridis L. (Amaranthus viridis L. [8]): 5

SMILES: O=C1CCCC(O)=C1C(=O)c1nc2cccnc2n(-c2ccc(OC(F)F)cc2)c1=O [IV-95]
- herbicidal effect (index) on Echinochloa oryzicola Vasing [1]: 5
- herbicidal effect (index) on Scirpus juncoides Roxb. var. ohwianus. T. Koyama [2]: 5
- herbicidal effect (index) on Monochoria vaginalis (Burm. f.) Presl var. plantaginea (Roxb.) Solms-Laub. [3]: 5
- herbicidal effect (index) on Abutilon theophrasti medicus [4]: 5
- herbicidal effect (index) on Amaranthus viridis L. (Amaranthus viridis L. [5]): 5
- herbicidal effects on Abutilon theophrasti medicus [6]: 5
- herbicidal effects on Echinochloa crus-galli (L.) P. Beauv. var. crus-galli [7]: 5
- herbicidal effects on Amaranthus viridis L. (Amaranthus viridis L. [8]): 5

SMILES: O=C1CCCC(O)=C1C(=O)c1nc2cccnc2n(-c2ccccc2OC(F)(F)F)c1=O [IV-100]
- herbicidal effect (index) on Echinochloa oryzicola Vasing [1]: 5
- herbicidal effect (index) on Scirpus juncoides Roxb. var. ohwianus. T. Koyama [2]: 5
- herbicidal effect (index) on Monochoria vaginalis (Burm. f.) Presl var. plantaginea (Roxb.) Solms-Laub. [3]: 5
- herbicidal effect (index) on Abutilon theophrasti medicus [4]: 5
- herbicidal effect (index) on Amaranthus viridis L. (Amaranthus viridis L. [5]): 5
- herbicidal effects on Abutilon theophrasti medicus [6]: 5
- herbicidal effects on Echinochloa crus-galli (L.) P. Beauv. var. crus-galli [7]: 5
- herbicidal effects on Amaranthus viridis L. (Amaranthus viridis L. [8]): 5

SMILES: Cc1ccc(-n2c(=O)c(C(=O)C3=C(O)CCCC3=O)nc3cccnc32)cc1F [IV-222, 4-(3-fluoro-4-methylphenyl)-2-(2-hydroxy-6-oxo-1-cyclohexenecarbonyl)-pyrido[2,3-b]pyrazin-3 (4H)-one]
- herbicidal effect (index) on Echinochloa oryzicola Vasing [1]: 5
- herbicidal effect (index) on Scirpus juncoides Roxb. var. ohwianus. T. Koyama [2]: 5
- herbicidal effect (index) on Monochoria vaginalis (Burm. f.) Presl var. plantaginea (Roxb.) Solms-Laub. [3]: 5
- herbicidal effect (index) on Abutilon theophrasti medicus [4]: 5
- herbicidal effect (index) on Amaranthus viridis L. (Amaranthus viridis L. [5]): 5
- herbicidal effects on Abutilon theophrasti medicus [6]: 5
- herbicidal effects on Echinochloa crus-galli (L.) P. Beauv. var. crus-galli [7]: 5
- herbicidal effects on Amaranthus viridis L. (Amaranthus viridis L. [8]): 5

SMILES: O=C1CCCC(O)=C1C(=O)c1cnccn1 [comparative compound A, reference compound]
- herbicidal effect (index) on Echinochloa oryzicola Vasing [1]: 2
- herbicidal effect (index) on Scirpus juncoides Roxb. var. ohwianus. T. Koyama [2]: 0
- herbicidal effect (index) on Monochoria vaginalis (Burm. f.) Presl var. plantaginea (Roxb.) Solms-Laub. [3]: 0
- herbicidal effect (index) on Abutilon theophrasti medicus [4]: 1
- herbicidal effect (index) on Amaranthus viridis L. (Amaranthus viridis L. [5]): 0
- herbicidal effects on Abutilon theophrasti medicus [6]: 2
- herbicidal effects on Echinochloa crus-galli (L.) P. Beauv. var. crus-galli [7]: 0
- herbicidal effects on Amaranthus viridis L. (Amaranthus viridis L. [8]): 1

SMILES: O=C1CCCC(O)=C1C(=O)c1ccc2ccccc2n1 [comparative compound B, reference compound]
- herbicidal effect (index) on Echinochloa oryzicola Vasing [1]: 0
- herbicidal effect (index) on Scirpus juncoides Roxb. var. ohwianus. T. Koyama [2]: 0
- herbicidal effect (index) on Monochoria vaginalis (Burm. f.) Presl var. plantaginea (Roxb.) Solms-Laub. [3]: 0
- herbicidal effect (index) on Abutilon theophrasti medicus [4]: 2
- herbicidal effect (index) on Amaranthus viridis L. (Amaranthus viridis L. [5]): 2
- herbicidal effects on Abutilon theophrasti medicus [6]: 5
- herbicidal effects on Echinochloa crus-galli (L.) P. Beauv. var. crus-galli [7]: 0
- herbicidal effects on Amaranthus viridis L. (Amaranthus viridis L. [8]): 1

SMILES: CC1(C)CC(=O)C(C(=O)c2cnc3ccccc3n2)=C(O)C1 [comparative compound C, reference compound]
- herbicidal effect (index) on Echinochloa oryzicola Vasing [1]: 1
- herbicidal effect (index) on Scirpus juncoides Roxb. var. ohwianus. T. Koyama [2]: 1
- herbicidal effect (index) on Monochoria vaginalis (Burm. f.) Presl var. plantaginea (Roxb.) Solms-Laub. [3]: 2
- herbicidal effect (index) on Abutilon theophrasti medicus [4]: 0
- herbicidal effect (index) on Amaranthus viridis L. (Amaranthus viridis L. [5]): 3
- herbicidal effects on Abutilon theophrasti medicus [6]: 4
- herbicidal effects on Echinochloa crus-galli (L.) P. Beauv. var. crus-galli [7]: 0
- herbicidal effects on Amaranthus viridis L. (Amaranthus viridis L. [8]): 0

SMILES: CC1(C)CCC(=O)C(C(=O)c2cnc3ccccc3n2)=C1O [comparative compound D, reference compound]
- herbicidal effect (index) on Echinochloa oryzicola Vasing [1]: 1
- herbicidal effect (index) on Scirpus juncoides Roxb. var. ohwianus. T. Koyama [2]: 2
- herbicidal effect (index) on Monochoria vaginalis (Burm. f.) Presl var. plantaginea (Roxb.) Solms-Laub. [3]: 4
- herbicidal effect (index) on Abutilon theophrasti medicus [4]: 0
- herbicidal effect (index) on Amaranthus viridis L. (Amaranthus viridis L. [5]): 3
- herbicidal effects on Abutilon theophrasti medicus [6]: 4
- herbicidal effects on Echinochloa crus-galli (L.) P. Beauv. var. crus-galli [7]: 0
- herbicidal effects on Amaranthus viridis L. (Amaranthus viridis L. [8]): 1

— patent publication US8389523B2, “Substituted quinoxaline and an agrochemical composition thereof” (Kumiai Chemical Industry Co., Ltd., priority 2007, dated 2013)
